In patent US6709647B2, “Antimicrobial deodorant compositions” (Unilever Home & Personal Care USA, a division of Conopco, …, priority 2001, dated 2004):

What was measured:
[1] = test system: Staphylococcus epidermidis; experiment: Cell suspension kill test in MES buffer, quench, plate count; format: cell-based; conditions: 50 mM MES pH 6.5; for Bacterial no. After 60 mins. / Bacterial no. Immediate: S. epidermidis suspension, amounts in weight %; for Bacterial no. Immediate: sample removed immediately; for Reduction in bacterial no. / Bacterial no. (concentration of bacteria remaining after 60 minutes): S. epidermidis; for Reduction in bacterial no.: amounts in mM; for Bacterial no. (concentration of bacteria remaining after 60 minutes): Table 6, percarbonate
Protocol: A cell suspension of Staphylococcus epidermidis in 50 mM MES buffer (2-[N-morpholino]ethanesulfonic acid, Sigma M5287) was prepared to an OD600 nm of 0.022 and equal portions were treated with the components indicated in Table 3, to give the weight percentages also indicated. Samples were removed immediately and after 60 minutes; said samples being decimally diluted in a quench solution (vide infra) and then plated onto a suitable culture medium. The plates were incubated at 37° C. for 48 hours, then read and the bacterial numbers calculated.
The quench solution used was a solution of:
in 37.5 mM phosphate buffer, at pH 7.9, containing 0.05% v/v Triton X-100 (iso-octyl phenoxy polyoxyethanol).
In this Table, the amounts indicated are milliMolar concentrations and the antimicrobial effect is expressed in terms of the reduction in bacterial numbers achieved.
In these Tables, the amounts indicated are milliMolar concentrations and the antimicrobial effect is expressed in terms of the concentration of bacteria remaining after 60 minutes.

Corynebacteria = experiment: Cell suspension kill test in MES buffer, quench, plate count (Corynebacteria); format: cell-based; conditions: amounts in mM; for Bacterial no. After 60 mins.: 50 mM MES pH 6.5, after 60 minutes; for Bacterial no. Immediate: 50 mM MES pH 6.5, sample removed immediately
Protocol: A cell suspension of Staphylococcus epidermidis in 50 mM MES buffer (2-[N-morpholino]ethanesulfonic acid, Sigma M5287) was prepared to an OD600 nm of 0.022 and equal portions were treated with the components indicated in Table 3, to give the weight percentages also indicated. […] The plates were incubated at 37° C. for 48 hours, then read and the bacterial numbers calculated. The quench solution used was a solution of: in 37.5 mM phosphate buffer, at pH 7.9, containing 0.05% v/v Triton X-100 (iso-octyl phenoxy polyoxyethanol). An analogous experiment to that performed with Example 3, with the modification of using Corynebacteria rather than S. epidermidis, was performed with the components indicated in Table 5. In this Table, the amounts indicated are milliMolar concentrations and the effect is expressed as in Table 3.

O=C(O)c1ccccn1 [D, Picolinic acid]
Bacterial no. After 60 mins. [1]: 6.50 Log10cfu/ml | Bacterial no. Immediate [1]: 6.60 Log10cfu/ml

O=C(CCCCCN1C(=O)c2ccccc2C1=O)OO [Example E, phthalimidoperoxy hexanoic acid]
Bacterial no. After 60 mins. [1]: 6.50 Log10cfu/ml | Bacterial no. Immediate [1]: 6.47 Log10cfu/ml

O=C(O)c1ccccn1 [Example F, Picolinic acid]
Reduction in bacterial no. [1]: <2.59 Log10cfu/ml

O.O=BO[O-].[Na+] [Example G, Perborate.H2O]
Reduction in bacterial no. [1]: <2.59 Log10cfu/ml

O=C(O)c1ccccn1 [J, Picolinic acid]
Bacterial no. After 60 mins. (Corynebacteria): 6.0 Log10cfu/ml | Bacterial no. Immediate (Corynebacteria): 6.1 Log10cfu/ml

OO [K, Hydrogen peroxide]
Bacterial no. After 60 mins. (Corynebacteria): 4.6 Log10cfu/ml | Bacterial no. Immediate (Corynebacteria): 6.1 Log10cfu/ml

O=C(O)CN(CCN(CC(=O)O)CC(=O)O)CCN(CC(=O)O)CC(=O)O [L, Diethylenetriaminapentaacetic acid]
Bacterial no. After 60 mins. (Corynebacteria): 5.9 Log10cfu/ml | Bacterial no. Immediate (Corynebacteria): 6.0 Log10cfu/ml

O=C([O-])[O-].O=C([O-])[O-].OO.OO.OO.[Na+].[Na+].[Na+].[Na+] [N, Percarbonate]
Bacterial no. (concentration of bacteria remaining after 60 minutes) [1]: 6.13 Log10cfu/ml

O=C([O-])[O-].O=C([O-])[O-].OO.OO.OO.[Na+].[Na+].[Na+].[Na+] [O, Percarbonate]
Bacterial no. (concentration of bacteria remaining after 60 minutes) [1]: 6.39 Log10cfu/ml

Perborate.4 H2O [Example H]
Reduction in bacterial no. [1]: <2.59 Log10cfu/ml
